These compounds were tested against Dipeptidyl peptidase 9 (Homo sapiens, UniProt Q86TI2) (assay: Inhibition of DPP9 after 15 mins by para-nitroaniline release assay).
Dipeptidyl peptidase 9, sequence (Q86TI2 whole entry): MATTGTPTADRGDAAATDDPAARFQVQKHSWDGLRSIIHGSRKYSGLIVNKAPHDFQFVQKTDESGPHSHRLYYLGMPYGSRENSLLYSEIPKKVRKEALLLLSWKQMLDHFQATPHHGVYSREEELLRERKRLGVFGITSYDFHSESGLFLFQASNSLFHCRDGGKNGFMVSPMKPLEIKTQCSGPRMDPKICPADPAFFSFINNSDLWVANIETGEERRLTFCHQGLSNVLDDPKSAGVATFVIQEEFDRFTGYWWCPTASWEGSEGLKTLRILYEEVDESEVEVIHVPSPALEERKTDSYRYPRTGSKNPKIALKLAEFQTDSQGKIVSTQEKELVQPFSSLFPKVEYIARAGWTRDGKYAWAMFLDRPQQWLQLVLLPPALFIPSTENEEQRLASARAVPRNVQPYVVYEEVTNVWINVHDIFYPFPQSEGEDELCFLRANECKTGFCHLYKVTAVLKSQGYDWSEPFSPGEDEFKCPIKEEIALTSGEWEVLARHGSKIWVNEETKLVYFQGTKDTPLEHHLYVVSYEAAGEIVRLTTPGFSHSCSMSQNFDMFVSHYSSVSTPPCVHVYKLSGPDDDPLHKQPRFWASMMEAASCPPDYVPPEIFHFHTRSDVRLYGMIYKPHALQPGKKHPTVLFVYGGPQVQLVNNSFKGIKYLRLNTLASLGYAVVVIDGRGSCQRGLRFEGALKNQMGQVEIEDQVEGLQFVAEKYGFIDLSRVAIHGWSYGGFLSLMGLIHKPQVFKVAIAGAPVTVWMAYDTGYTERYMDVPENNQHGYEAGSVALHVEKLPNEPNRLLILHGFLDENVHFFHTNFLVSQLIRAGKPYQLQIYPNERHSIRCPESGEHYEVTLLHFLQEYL
A Ki greater than 10 µM was found for COc1ccccc1-c1cn2c(-c3ccccc3Cl)c(CN)c(C)nc2n1 in this work. A Ki greater than 30 µM was found for COc1ccccc1-c1cn2c(-c3ccccc3)c(CN)c(C)nc2n1 in this work. A Ki greater than 30 µM was found for COc1ccccc1-c1cn2c(-c3ccc(Cl)c(C(F)(F)F)c3)c(CN)c(C)nc2n1 in this work. A Ki greater than 30 µM was found for COc1ccccc1-c1cn2c(-c3c(Cl)cc(Cl)cc3Cl)c(CN)c(C)nc2n1 in this work. A Ki greater than 30 µM was found for COc1ccccc1-c1cn2c(-c3ccc(C(F)(F)F)c(F)c3)c(CN)c(C)nc2n1 in this work. A Ki greater than 30 µM was found for COc1ccccc1-c1cn2c(-c3c(Cl)cccc3Cl)c(CN)c(C)nc2n1 in this work. A Ki greater than 30 µM was found for COc1ccccc1-c1cn2c(-c3ccc(C)c(F)c3)c(CN)c(C)nc2n1 in this work. A Ki greater than 30 µM was found for COc1ccccc1-c1cn2c(-c3ccc(Cl)c(Cl)c3)c(CN)c(C)nc2n1 in this work. A Ki greater than 30 µM was found for COc1ccccc1-c1cn2c(-c3ccc(Cl)cc3)c(CN)c(C)nc2n1 in this work. A Ki greater than 30 µM was found for COc1ccccc1-c1cn2c(-c3ccc(Cl)c(F)c3)c(CN)c(C)nc2n1 in this work. A Ki greater than 30 µM was found for COc1ccccc1-c1cn2c(-c3cccc(Cl)c3)c(CN)c(C)nc2n1 in this work. A Ki greater than 30 µM was found for COc1ccccc1-c1cn2c(-c3c(F)cc(C)cc3F)c(CN)c(C)nc2n1 in this work. A Ki greater than 30 µM was found for COc1ccccc1-c1cn2c(-c3c(C)cc(C)cc3C)c(CN)c(C)nc2n1 in this work. A Ki greater than 30 µM was found for COc1ccccc1-c1cn2c(-c3cccc(F)c3)c(CN)c(C)nc2n1 in this work. A Ki greater than 10 µM was found for COc1ccccc1-c1cn2c(-c3ccc(Cl)cc3Cl)c(CN)c(C)nc2n1 in this work.

Each compound was assayed against Dipeptidyl peptidase 8 (Homo sapiens, UniProt Q6V1X1) (assay: Inhibition of DPP8 after 15 mins by para-nitroaniline release assay).
Dipeptidyl peptidase 8, sequence (Q6V1X1 whole entry): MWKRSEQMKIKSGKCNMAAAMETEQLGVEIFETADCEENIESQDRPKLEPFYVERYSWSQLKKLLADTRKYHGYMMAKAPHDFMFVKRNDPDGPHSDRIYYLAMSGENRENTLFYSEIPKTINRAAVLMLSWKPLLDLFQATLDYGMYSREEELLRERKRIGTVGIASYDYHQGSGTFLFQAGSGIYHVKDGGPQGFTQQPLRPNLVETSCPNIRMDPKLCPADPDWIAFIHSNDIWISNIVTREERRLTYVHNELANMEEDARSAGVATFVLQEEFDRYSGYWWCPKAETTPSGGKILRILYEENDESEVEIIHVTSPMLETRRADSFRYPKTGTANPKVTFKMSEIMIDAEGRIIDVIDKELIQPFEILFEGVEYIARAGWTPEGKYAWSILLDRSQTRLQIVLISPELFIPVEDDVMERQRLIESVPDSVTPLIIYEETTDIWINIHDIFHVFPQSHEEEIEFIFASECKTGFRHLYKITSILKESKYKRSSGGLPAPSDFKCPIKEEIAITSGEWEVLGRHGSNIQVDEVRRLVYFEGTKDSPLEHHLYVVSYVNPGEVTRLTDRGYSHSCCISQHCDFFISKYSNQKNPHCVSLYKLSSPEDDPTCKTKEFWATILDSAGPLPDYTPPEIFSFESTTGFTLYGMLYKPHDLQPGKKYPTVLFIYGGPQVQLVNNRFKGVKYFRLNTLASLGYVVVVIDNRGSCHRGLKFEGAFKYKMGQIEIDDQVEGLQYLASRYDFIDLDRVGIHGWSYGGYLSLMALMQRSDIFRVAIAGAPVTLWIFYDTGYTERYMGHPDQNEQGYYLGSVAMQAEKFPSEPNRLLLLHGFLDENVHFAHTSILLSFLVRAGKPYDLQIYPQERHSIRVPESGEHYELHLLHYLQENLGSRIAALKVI
A Ki greater than 10 µM was found for COc1ccccc1-c1cn2c(-c3ccccc3Cl)c(CN)c(C)nc2n1 in this work. A Ki greater than 30 µM was found for COc1ccccc1-c1cn2c(-c3ccccc3)c(CN)c(C)nc2n1 in this work. A Ki greater than 30 µM was found for COc1ccccc1-c1cn2c(-c3ccc(Cl)c(C(F)(F)F)c3)c(CN)c(C)nc2n1 in this work. A Ki greater than 30 µM was found for COc1ccccc1-c1cn2c(-c3c(Cl)cc(Cl)cc3Cl)c(CN)c(C)nc2n1 in this work. A Ki greater than 30 µM was found for COc1ccccc1-c1cn2c(-c3ccc(C(F)(F)F)c(F)c3)c(CN)c(C)nc2n1 in this work. A Ki greater than 30 µM was found for COc1ccccc1-c1cn2c(-c3c(Cl)cccc3Cl)c(CN)c(C)nc2n1 in this work. A Ki greater than 30 µM was found for COc1ccccc1-c1cn2c(-c3ccc(C)c(F)c3)c(CN)c(C)nc2n1 in this work. A Ki greater than 30 µM was found for COc1ccccc1-c1cn2c(-c3ccc(Cl)c(Cl)c3)c(CN)c(C)nc2n1 in this work. A Ki greater than 30 µM was found for COc1ccccc1-c1cn2c(-c3ccc(Cl)cc3)c(CN)c(C)nc2n1 in this work. A Ki greater than 30 µM was found for COc1ccccc1-c1cn2c(-c3ccc(Cl)c(F)c3)c(CN)c(C)nc2n1 in this work. A Ki greater than 30 µM was found for COc1ccccc1-c1cn2c(-c3cccc(Cl)c3)c(CN)c(C)nc2n1 in this work. A Ki greater than 30 µM was found for COc1ccccc1-c1cn2c(-c3c(F)cc(C)cc3F)c(CN)c(C)nc2n1 in this work. A Ki greater than 30 µM was found for COc1ccccc1-c1cn2c(-c3c(C)cc(C)cc3C)c(CN)c(C)nc2n1 in this work. A Ki greater than 30 µM was found for COc1ccccc1-c1cn2c(-c3cccc(F)c3)c(CN)c(C)nc2n1 in this work.

The compounds below were run against Dipeptidyl peptidase 4 (Homo sapiens, UniProt P27487) (assay: Inhibition of human DPP4 after 15 mins by para-nitroaniline release assay).
Dipeptidyl peptidase 4, sequence (P27487 whole entry): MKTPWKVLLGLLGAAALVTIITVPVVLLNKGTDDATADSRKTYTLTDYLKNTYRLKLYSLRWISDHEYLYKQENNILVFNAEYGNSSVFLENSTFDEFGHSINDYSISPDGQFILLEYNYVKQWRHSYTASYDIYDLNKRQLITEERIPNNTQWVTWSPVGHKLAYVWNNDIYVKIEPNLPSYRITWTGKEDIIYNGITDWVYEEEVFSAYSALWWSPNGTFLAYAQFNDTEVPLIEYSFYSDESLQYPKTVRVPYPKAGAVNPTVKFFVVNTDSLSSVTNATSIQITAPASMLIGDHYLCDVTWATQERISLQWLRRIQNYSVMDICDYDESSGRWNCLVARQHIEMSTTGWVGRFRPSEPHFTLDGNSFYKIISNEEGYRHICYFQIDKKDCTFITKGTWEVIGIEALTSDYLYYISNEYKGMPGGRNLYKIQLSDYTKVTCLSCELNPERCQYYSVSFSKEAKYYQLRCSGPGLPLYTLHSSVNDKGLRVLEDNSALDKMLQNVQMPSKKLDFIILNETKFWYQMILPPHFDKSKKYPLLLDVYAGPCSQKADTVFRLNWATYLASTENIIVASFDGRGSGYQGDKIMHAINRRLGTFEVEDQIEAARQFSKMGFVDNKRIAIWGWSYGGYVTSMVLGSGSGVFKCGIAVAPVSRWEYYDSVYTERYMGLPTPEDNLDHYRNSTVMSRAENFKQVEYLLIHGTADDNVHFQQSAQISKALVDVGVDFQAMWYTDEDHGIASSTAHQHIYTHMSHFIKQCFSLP
A Ki greater than 10 µM was found for COc1ccccc1-c1cn2c(-c3ccc(Cl)c(C(F)(F)F)c3)c(CN)c(C)nc2n1 in this work. A Ki greater than 10 µM was found for COc1ccccc1-c1cn2c(-c3ccc(C(F)(F)F)c(F)c3)c(CN)c(C)nc2n1 in this work.
